Read-outs that look alike come from different tables or passages of the source.
What was measured:
σ1 receptor = σ1 receptor (Cavia porcellus, UniProt Q60492); assay type: binding, guinea pig
σ2 receptor = biological target: T1, σ2 receptor (Rattus norvegicus, UniProt Q5U3Y7); assay: σ2 receptor binding assay, [3H]DTG, rat liver membrane homogenates
T1 sequence (Q5U3Y7 1-176): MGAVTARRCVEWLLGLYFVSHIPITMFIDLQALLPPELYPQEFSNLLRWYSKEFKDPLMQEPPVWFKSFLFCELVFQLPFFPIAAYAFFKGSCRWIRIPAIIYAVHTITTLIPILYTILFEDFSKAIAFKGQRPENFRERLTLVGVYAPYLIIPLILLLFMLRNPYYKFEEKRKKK

Torpedo VAChT [1] = biological target: T2, Torpedo VAChT (Tetronarce californica, UniProt P81721); details: read-out: VAChT (Ki [nM]), cited from earlier work
T2 sequence (P81721 1-515): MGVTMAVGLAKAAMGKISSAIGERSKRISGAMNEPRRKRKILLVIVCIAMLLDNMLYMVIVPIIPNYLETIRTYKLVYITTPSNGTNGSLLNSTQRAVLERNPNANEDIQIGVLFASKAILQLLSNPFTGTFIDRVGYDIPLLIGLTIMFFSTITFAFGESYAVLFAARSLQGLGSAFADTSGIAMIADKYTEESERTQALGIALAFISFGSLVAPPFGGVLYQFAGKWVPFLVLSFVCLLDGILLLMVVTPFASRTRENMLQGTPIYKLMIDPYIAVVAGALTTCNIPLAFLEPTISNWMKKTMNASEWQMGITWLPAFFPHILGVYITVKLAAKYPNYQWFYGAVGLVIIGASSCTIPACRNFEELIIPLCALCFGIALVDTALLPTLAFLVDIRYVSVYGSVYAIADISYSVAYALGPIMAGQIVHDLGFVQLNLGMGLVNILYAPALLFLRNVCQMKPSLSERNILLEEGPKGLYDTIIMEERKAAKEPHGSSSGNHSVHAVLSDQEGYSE

Torpedo VAChT [2] = biological target: T2, Torpedo VAChT; details: for VAChT/σ selectivity (in words): based on selectivity index; for VAChT/sigma selectivity index (selectivity ratio): Ki (σ1 or σ2)/Ki (VAChT)

Sequence of σ1 receptor (Q60492 whole entry): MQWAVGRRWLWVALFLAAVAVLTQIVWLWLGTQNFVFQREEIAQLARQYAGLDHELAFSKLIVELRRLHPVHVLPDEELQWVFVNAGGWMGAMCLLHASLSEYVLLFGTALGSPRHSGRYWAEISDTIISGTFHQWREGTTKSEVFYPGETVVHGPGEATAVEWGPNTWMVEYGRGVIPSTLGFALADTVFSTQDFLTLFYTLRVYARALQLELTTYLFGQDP

Cl.Nc1cccc2c1C[C@@H](N1CCC(C(=O)c3cccs3)CC1)[C@H](O)C2 [Compound 30f, 5-Amino-3-[4-(thien-2-yl)carbonylpiperidyl]-2-hydroxy-1,2,3,4-tetrahydronaphthalene hydrochloride]
Selectivity Index Ki-σ1/Ki-VAChT (σ1 receptor; Ki (σ1)/Ki (VAChT)): >204.1
Selectivity Index Ki-σ2/Ki-VAChT (σ2 receptor): >204.1

Nc1cccc2c1CC(N1CCC(c3ccccc3)CC1)C(O)C2 (stereo not shown) [Compound 3, reference compound]
Ki (Torpedo VAChT [1]; Torpedo synaptic vesicles): 0.0065 ± 0.0005 nM

CCOC(=O)C1CCN([C@@H]2Cc3ccccc3C[C@H]2O)CC1.Cl (relative stereo) [Compound 34e, trans-3-[4-Ethoxycarbonylpiperidyl]-2-hydroxy-1,2,3,4-tetrahydronaphthalene hydrochloride]
Selectivity Index Ki-σ1/Ki-VAChT (σ1 receptor; Ki (σ1)/Ki (VAChT)): >14.6
Selectivity Index Ki-σ2/Ki-VAChT (σ2 receptor): >14.6

Cl.O=C(C1CCN([C@@H]2Cc3ccccc3C[C@H]2O)CC1)N1CCC(Cc2ccccc2)CC1 (relative stereo) [Compound 34c, trans-3-[4-(4-Benzylpiperidyl)carbonylpiperidyl]-2-hydroxy-1,2,3,4-tetrahydronaphthalene hydrochloride]
Selectivity Index Ki-σ2/Ki-VAChT (σ2 receptor): >416.7

Cl.O=C(C1CCN([C@@H]2Cc3ccccc3C[C@H]2O)CC1)N1CCN(Cc2ccccc2)CC1 (relative stereo) [Compound 34d, trans-3-[4-(4-Benzylpiperazinyl)carbonylpiperidyl]-2-hydroxy-1,2,3,4-tetrahydronaphthalene hydrochloride]
Selectivity Index Ki-σ2/Ki-VAChT (σ2 receptor): >480.8
VAChT/σ selectivity (in words) (Torpedo VAChT [2]): moderate selectivity

Cl.O=C(c1ccccc1)C1(c2ccccc2)CCN([C@@H]2Cc3ccccc3C[C@H]2O)CC1 (relative stereo) [Compound 22a, trans-3-(4-Benzoyl-4-phenylpiperidinyl)-2-hydroxy-1,2,3,4-tetrahydronaphthalene hydrochloride]
fold less potent at VAChT than benzovesamicol (2) (Torpedo VAChT [2]; relative to benzovesamicol (2)): 30 fold

Cl.O=C(c1ccc(Br)s1)C1CCN([C@@H]2Cc3ccccc3C[C@H]2O)CC1 (relative stereo) [Compound 28g, trans-3-[4-(5-Bromothienylcarbonyl)piperidinyl]-2-hydroxy-1,2,3,4-tetrahydronaphthalene hydrochloride]
VAChT/σ selectivity (in words) (Torpedo VAChT [2]): high VAChT/σ selectivity

Cl.O=C(c1ccccc1)C1(c2ccccc2)CCN([C@@H]2CCCC[C@H]2O)CC1 [Compound 20, 2-(4-Benzoyl-4-phenylpiperidinyl)cyclohexanol hydrochloride]
fold lower affinity for VAChT than vesamicol (1) (Torpedo VAChT [2]; relative to vesamicol (1)): 35 fold

Cl.O=C(c1ccc(I)s1)C1CCN([C@@H]2CCCC[C@H]2O)CC1 [Compound 27h, 2-[4-(5-Iodothien-2-yl)carbonylpiperidinyl]cyclohexanol hydrochloride]
affinity for σ1 receptors (class in words) (σ1 receptor): high (high (Ki = 1–10 nM))

Cl.Nc1cccc2c1C[C@@H](O)[C@H](N1CCC(C(=O)c3cccs3)CC1)C2 [Compound 31f, 8-Amino-3-[4-(thien-2-yl)carbonylpiperidyl]-2-hydroxy-1,2,3,4-tetrahydronaphthalene hydrochloride]
Selectivity Index Ki-σ1/Ki-VAChT (σ1 receptor): >7.5
Selectivity Index Ki-σ2/Ki-VAChT (σ2 receptor): >7.5

Cl.Nc1cccc2c1C[C@@H](N1CCC(C(=O)c3ccc(F)cc3)CC1)[C@H](O)C2 [Compound 30b, 5-Amino-3-[4-(p-fluorobenzoyl)piperidinyl]-2-hydroxy-1,2,3,4,-tetrahydronaphthalene hydrochloride]
Selectivity Index Ki-σ1/Ki-VAChT (σ1 receptor): >416.7
Selectivity Index Ki-σ2/Ki-VAChT (σ2 receptor): >416.7

Cl.Nc1cccc2c1C[C@@H](N1CCC(C(=O)c3ccc(Br)s3)CC1)[C@H](O)C2 [Compound 30g, 5-Amino-3-[4-(5-bromothien-2-yl)carbonylpiperidinyl]-2-hydroxy-1,2,3,4-tetrahydronaphthalene hydrochloride]
Selectivity Index Ki-σ1/Ki-VAChT (σ1 receptor): >2439.0
Selectivity Index Ki-σ2/Ki-VAChT (σ2 receptor): >2439.0
VAChT/sigma selectivity index (selectivity ratio) (Torpedo VAChT [2]): greater than 1000

Cl.O=C(C1CCN([C@@H]2Cc3ccccc3C[C@H]2O)CC1)N1CCC(c2ccccc2)CC1 (relative stereo) [Compound 34b, trans-3-[4-(4-Phenylpiperidyl)carbonylpiperidyl]-2-hydroxy-1,2,3,4-tetrahydronaphthalene hydrochloride]
Selectivity Index Ki-σ2/Ki-VAChT (σ2 receptor): >483.1

Cl.O=C(C1CCN([C@@H]2Cc3ccccc3C[C@H]2O)CC1)N1CCCCC1 (relative stereo) [Compound 34a, Trans-3-[4-(piperidyl)carbonylpiperidyl]-2-hydroxy-1,2,3,4-tetrahydronaphthalene hydrochloride]
Selectivity Index Ki-σ1/Ki-VAChT (σ1 receptor; Ki (σ1)/Ki (VAChT)): >32.3
Selectivity Index Ki-σ2/Ki-VAChT (σ2 receptor): >32.3

Cl.Nc1cccc2c1C[C@@H](N1CCC(C(=O)c3ccc(Br)cc3)CC1)[C@H](O)C2 [Compound 30c, 5-Amino-3-[4-(p-bromobenzoyl)piperidinyl]-2-hydroxy-1,2,3,4,-tetrahydronaphthalene hydrochloride]
VAChT/sigma selectivity index (selectivity ratio) (Torpedo VAChT [2]): greater than 500

Cl.O=C(c1ccc(I)s1)C1CCN([C@@H]2Cc3ccccc3C[C@H]2O)CC1 (relative stereo) [Compound 28h, trans-3-[4-(5-Iodothienylcarbonyl)piperidinyl]-2-hydroxy-1,2,3,4-tetrahydronaphthalene hydrochloride]
VAChT/σ selectivity (in words) (Torpedo VAChT [2]): high VAChT/σ selectivity

O=C(c1ccc(F)cc1)C1CCN([C@@H]2Cc3ccccc3C[C@H]2O)CC1 (relative stereo) [Compound 28b, trans-3-[4-(4-fluorobenzoyl)piperidinyl]-2-hydroxy-1,2,3,4-tetrahydronaphthalene]
Ki (Torpedo VAChT [1]): 2.7 ± 0.4 nM

Source: PMC2853924 (Journal of medicinal chemistry, 2010)
